Test results reported in US11547663B2, “Unit aerosol doses for anticoagulation” (InCarda Therapeutics, Inc., priority 2015, dated 2023).

Experiments:
[1] = cited from earlier work
[2] = system: intrinsic pathway; assay: Activated clotting time (ACT) in dog blood after IV or IT anticoagulant; type: in vivo; details: for ACT LA: Left Atrium
Experimental: To assess the efficacy of anticoagulants delivered via intratracheal (IT) inhalation, four different anticoagulants were tested in a dog study. PK as well as biomarkers of blood in the Left Atrium (LA) and Coronary Sinus (CS) were monitored. These locations were chosen as these are the sites whereby clot formation occurs that leads to Myocardial Infarction or results in stroke. These drugs and doses were selected to represent a wide spectrum of anticoagulant classes. One anticoagulant was tested in one dog on each arm of this study. Activated clotting time (ACT), measures the time in seconds needed for whole blood to clot upon exposure to an activator of an intrinsic pathway by the addition of such as factor XII activators. Measurements were performed in the blood collected from Left Atrium (LA) and in the Coronary sinus (CS)—the targets for stroke prevention and Myocardial Infarction (MI), respectively.

[3] = system: extrinsic system; assay: Prothrombin Time (PT) in dog blood after IV or IT anticoagulant; type: in vivo; details: for PT CS / PTCS: Coronary Sinus; for PT LA: Left Atrium
Experimental: (§1) To assess the efficacy of anticoagulants delivered via intratracheal (IT) inhalation, four different anticoagulants were tested in a dog study.
(§2) PK as well as biomarkers of blood in the Left Atrium (LA) and Coronary Sinus (CS) were monitored. These locations were chosen as these are the sites whereby clot formation occurs that leads to Myocardial Infarction or results in stroke.
(§3) These drugs and doses were selected to represent a wide spectrum of anticoagulant classes. One anticoagulant was tested in one dog on each arm of this study.
(§4) Factor Xa inhibition; Prothrombin Time (PT): measures the integrity of the extrinsic system as well as factors common to both systems; and Activated Partial Thromboplastin Time (aPTT or PTT): measures the integrity of the intrinsic system and the common components and factor-Xa inhibition.
(§5) Measurements were performed in the blood collected from Left Atrium (LA) and in the Coronary sinus (CS)—the targets for stroke prevention and Myocardial Infarction (MI), respectively.

[4] = system: intrinsic system; assay: Activated Partial Thromboplastin Time (aPTT or PTT) in dog blood after IV or IT anticoagulant; type: in vivo; details: for PTT CS: Coronary Sinus; for PTT LA: Left Atrium
Experimental: as §1, §2, §3, §4, §5

[5] = Inhaled anticoagulant in Myocardial Infarction patient (Example 4); type: in vivo, human
Source text: Inhaled anticoagulant (e.g. Argatroban) will be administered (e.g., self-administered) to a patient suffering a Myocardial Infarction (MI) early to ensure that the patient is in an anti-coagulated state by the time the patient arrives at the hospital or point of care. This will facilitate further interventions, for which an anti-coagulated state is important.

[6] = Inhaled anticoagulant in patient undergoing heart valve replacement (Example 6); type: in vivo, human
Experimental: Inhaled anticoagulant (e.g. Argatroban) will be administered to a patient undergoing heart valve replacement to target the heart to reach an anti-coagulated state. In this example, a dose of 0.1 to 150 mg/kg can be sufficient to achieve an anti-coagulated state in 30 minutes.

[7] = Inhaled anticoagulant in heart transplant patient (Example 8); type: in vivo, human; details: patient undergoing heart transplant
Experimental: Inhaled anticoagulant (e.g. Argatroban) will be administered to a patient undergoing heart transplant to target the heart to reach an anti-coagulated state. In this example, a dose of 0.1 to 150 mg/kg can be sufficient to achieve an anti-coagulated state in 30 minutes.

[8] = in vivo; cited from earlier work
[9] = IV Argatroban 3 mg, 0 min (baseline)
[10] = T Argatroban 5 mg, 0 min (baseline)

Structure (SMILES): CCCCS(=O)(=O)N[C@@H](Cc1ccc(OCCCCC2CCNCC2)cc1)C(=O)O [Tirofiban]
- Log P [1]: 1.4
- aqueous solubility [1]: low

Structure (SMILES): CC1CNc2c(cccc2S(=O)(=O)N[C@@H](CCCNC(=N)N)C(=O)N2CC[C@@H](C)C[C@@H]2C(=O)O)C1 (some centres unmarked) [Argatroban]
- time in which ACT returns to base line [2]: 2 h
- increase of ACT above baseline ([2]; IT): ≤ 3.2 fold
- time in which IT prolonged the ACT ([2]; IT): 15 to 30 min
- effect on ACT ([2]; IT (inhaled)): increased and prolonged ACT
- effect on ACT ([2]; IV): prolonged
- ACT LA [2, 9]: 101 s
- ACT LA ([2]; IV Argatroban 3 mg, 1 min): 535 s
- ACT LA ([2]; IV Argatroban 3 mg, 3 min): 1000 s
- ACT LA ([2]; IV Argatroban 3 mg, 5 min): 489 s
- ACT LA ([2]; IV Argatroban 3 mg, 10 min): 326 s
- ACT LA ([2]; IV Argatroban 3 mg, 15 min): 264 s
- ACT LA ([2]; IV Argatroban 3 mg, 30 min): 185 s
- ACT LA ([2]; IV Argatroban 3 mg, 60 min): 140 s
- ACT LA ([2]; IV Argatroban 3 mg, 120 min): 107 s
- ACT LA [2, 10]: 84 s
- ACT LA ([2]; T Argatroban 5 mg, 1 min): 89 s
- ACT LA ([2]; T Argatroban 5 mg, 3 min): 73 s
- ACT LA ([2]; T Argatroban 5 mg, 5 min): 106 s
- ACT LA ([2]; T Argatroban 5 mg, 10 min): 135 s
- ACT LA ([2]; T Argatroban 5 mg, 15 min): 180 s
- ACT LA ([2]; T Argatroban 5 mg, 30 min): 259 s
- ACT LA ([2]; T Argatroban 5 mg, 60 min): 180 s
- ACT LA ([2]; T Argatroban 5 mg, 120 min): 129 s
- effect on PT ([3]; IT (inhaled)): very marginal spikes
- effect on PT ([3]; IV): prolonged
- PT CS [3, 9]: 6.5 s
- PT CS ([3]; IV Argatroban 3 mg, 3 min): 33.7 s
- PT CS ([3]; IV Argatroban 3 mg, 15 min): 20.2 s
- PT CS ([3]; IV Argatroban 3 mg, 60 min): 8.6 s
- PT LA [3, 9]: 9.1 s
- PT LA ([3]; IV Argatroban 3 mg, 1 min): 44.3 s
- PT LA ([3]; IV Argatroban 3 mg, 3 min): 36.3 s
- PT LA ([3]; IV Argatroban 3 mg, 5 min): 30.1 s
- PT LA ([3]; IV Argatroban 3 mg, 10 min): 22 s
- PT LA ([3]; IV Argatroban 3 mg, 15 min): 18 s
- PT LA ([3]; IV Argatroban 3 mg, 30 min): 11.5 s
- PT LA ([3]; IV Argatroban 3 mg, 60 min): 7.9 s
- PT LA ([3]; IV Argatroban 3 mg, 120 min): 6.7 s
- PTCS [3, 10]: 6.5 s
- PTCS ([3]; T Argatroban 5 mg, 3 min): 6.8 s
- PTCS ([3]; T Argatroban 5 mg, 15 min): 8.9 s
- PTCS ([3]; T Argatroban 5 mg, 60 min): 8.6 s
- PT LA [3, 10]: 6.3 s
- PT LA ([3]; T Argatroban 5 mg, 1 min): 6.7 s
- PT LA ([3]; T Argatroban 5 mg, 3 min): 7 s
- PT LA ([3]; T Argatroban 5 mg, 5 min): 7.2 s
- PT LA ([3]; T Argatroban 5 mg, 10 min): 8.6 s
- PT LA ([3]; T Argatroban 5 mg, 15 min): 10.4 s
- PT LA ([3]; T Argatroban 5 mg, 30 min): 12 s
- PT LA ([3]; T Argatroban 5 mg, 60 min): 8.1 s
- PT LA ([3]; T Argatroban 5 mg, 120 min): 7.3 s
- effect on aPTT ([4]; IT (inhaled)): very marginal spikes
- effect on aPTT ([4]; IV): prolonged
- PTT CS [4, 9]: 20.9 s
- PTT CS ([4]; IV Argatroban 3 mg, 3 min): 20 s
- PTT CS ([4]; IV Argatroban 3 mg, 15 min): 33.8 s
- PTT CS ([4]; IV Argatroban 3 mg, 60 min): 24.9 s
- PTT LA [4, 9]: 48.2 s
- PTT LA ([4]; IV Argatroban 3 mg, 1 min): 41.5 s
- PTT LA ([4]; IV Argatroban 3 mg, 3 min): 29.5 s
- PTT LA ([4]; IV Argatroban 3 mg, 5 min): 23.4 s
- PTT LA ([4]; IV Argatroban 3 mg, 10 min): 20.9 s
- PTT LA ([4]; IV Argatroban 3 mg, 15 min): 25.1 s
- PTT LA ([4]; IV Argatroban 3 mg, 30 min): 12.2 s
- PTT LA ([4]; IV Argatroban 3 mg, 60 min): 9.8 s
- PTT LA ([4]; IV Argatroban 3 mg, 120 min): 49.3 s
- PTT CS [4, 10]: 16.1 s
- PTT CS ([4]; T Argatroban 5 mg, 3 min): 18.4 s
- PTT CS ([4]; T Argatroban 5 mg, 15 min): 9.5 s
- PTT CS ([4]; T Argatroban 5 mg, 60 min): 40.3 s
- PTT LA [4, 10]: 13.3 s
- PTT LA ([4]; T Argatroban 5 mg, 1 min): 12.5 s
- PTT LA ([4]; T Argatroban 5 mg, 3 min): 17.7 s
- PTT LA ([4]; T Argatroban 5 mg, 5 min): 17.2 s
- PTT LA ([4]; T Argatroban 5 mg, 10 min): 20.1 s
- PTT LA ([4]; T Argatroban 5 mg, 15 min): 17.8 s
- PTT LA ([4]; T Argatroban 5 mg, 30 min): 13.2 s
- PTT LA ([4]; T Argatroban 5 mg, 60 min): 11.1 s
- PTT LA ([4]; T Argatroban 5 mg, 120 min): 10.4 s
- time to achieve an anti-coagulated state ([5]; patient suffering Myocardial Infarction, inhaled 0.1 to 150 mg/kg): 30 min
- return to a normal coagulation state after initiating the administration ([5]; patient suspected of Myocardial Infarction, inhaled): 3 h
- return to a normal coagulation state after initiating the administration ([6]; inhaled): 3 h
- time to achieve an anti-coagulated state ([6]; inhaled 0.1 to 150 mg/kg): 30 min
- return to a normal coagulation state after initiating the administration ([7]; inhaled): 3 h
- time to achieve an anti-coagulated state ([7]; inhaled 0.1 to 150 mg/kg): 30 min

Structure (SMILES): CO[C@H]1O[C@H](COS(=O)(=O)O)[C@@H](O[C@@H]2O[C@@H](C(=O)O)[C@@H](O[C@H]3O[C@H](COS(=O)(=O)O)[C@@H](O[C@@H]4O[C@H](C(=O)O)[C@@H](O[C@H]5O[C@H](COS(=O)(=O)O)[C@@H](OC)[C@H](OC)[C@H]5OC)[C@H](OC)[C@H]4OC)[C@H](OS(=O)(=O)O)[C@H]3OS(=O)(=O)O)[C@H](OC)[C@H]2OC)[C@H](OS(=O)(=O)O)[C@H]1OS(=O)(=O)O [idraparinux]
- elimination half-life [8]: approximately 80 hours
- elimination half-life relative to fondaparinux [8]: five to six times longer
